Experimental data published in ChEMBL document CHEMBL3044546, “Synthesis of inhibitors of imidazole glycerol phosphate dehydratase” (Bioorg Med Chem Lett, 1996).

Key:
[1] = Inhibition of Saccharomyces cerevisiae imidazole glycerol-phosphate dehydratase expressed in Escherichia coli
Saccharomyces cerevisiae = experiment: Inhibition of Saccharomyces cerevisiae imidazole glycerol-phosphate dehydratase expressed in Escherichia coli at 1 uM

| IC50 [1] | inhibition (Saccharomyces cerevisiae) | SMILES | Ki [1] |
| --- | --- | --- | --- |
| 10 µM | – | CNC(CC(O)CCP(=O)(O)O)c1nc[nH]n1 (centres undefined) | – |
| 6 µM | – | O=C(O)C(CCC(O)c1nc[nH]n1)C(=O)O (centres undefined) | – |
| 80 µM | – | O=P(O)(O)CCCCC(O)c1nc[nH]n1 (centres undefined) | – |
| > 500 µM | – | O=C(O)C(CCCC(O)c1nc[nH]n1)C(=O)O (centres undefined) | – |
| > 500 µM | – | O=C(O)C(CC(O)c1nc[nH]n1)C(=O)O (centres undefined) | – |

The remaining lines, values behind:

| SMILES | IC50 [1] | inhibition (Saccharomyces cerevisiae) | Ki [1] |
| --- | --- | --- | --- |
| O=P(O)(O)CC(O)Cn1cncn1 (centres undefined) | – | – | 0.0006 µM |
| O=P(O)(O)COCC(O)Cn1cncn1 (centres undefined) | < 1 µM | 80% | – |
| O=P(O)(O)CCC(O)c1nc[nH]n1 (centres undefined) | 0.13 µM | – | 0.04 µM |
| O=C(O)C(OCC(O)Cn1cncn1)C(=O)O (centres undefined) | 100 µM | – | – |
| O=C(O)C(OCCC(O)Cn1cncn1)C(=O)O (centres undefined) | 30 µM | – | – |
| O=P(O)(O)CSCC(O)Cn1cncn1 (centres undefined) | 7 µM | – | – |
| O=P(O)(O)COCCNc1nc[nH]n1 | 5 µM | – | – |
